# Key:
# [1] = test system: Arachis hypogaea; assay: Growth-regulating action, postemergence, greenhouse (Example 35, Table 1); type: in vivo; details: for growth height relative: control 100
# Source text: (§1) The vessels used for the experiments were plastic pots having a volume of 1,130 cm^3 (Table A) or paraffined paper cups having a volume of 170 cm^3 (Table B). The pots and cups were filled with a sandy loam. The seeds of the test plants-separated by species-were sown shallow. Preemergence treatment (soil treatment) was effected immediately after sowing and before germination of the seeds. Seeds lying on the surface came into contact with the active ingredients. Postemergence treatment (leaf treatment) took place at an average growth height of the plants (depending on the rate of growth) of from 6 to 10 cm. The substances were suspended, emulsified or dissolved in water as diluent and applied by means of fine nozzles. The vessels were kept in the greenhouse in a temperature range of 12° C. to 25° C., and were regularly sprinkler irrigated for the duration of the experiment. The observation period was 6 to 8 weeks.
# (§2) Further experiments were carried out in the greenhouse under the condition described in Example 11. […] As the plants which were examined liked the warmth (Eupghorbia geniculate, Arachis hypogaea, Cynodon dactylon), they were kept at from 20°-30° C. Cynodon dactylon from seed was cut once and the young growth treated postemergence.
# [2] = test system: Cynodon dactylon; assay: as above; type: in vivo; details: for growth height relative: control 100
# Source text: as §1, §2
# [3] = test system: Euphorbia geniculata; assay: Growth-regulating action, preemergence, greenhouse (Example 35, Table 2); type: in vivo; details: for growth height relative: control 100
# Source text: as §1, §2
# [4] = test system: cotton; assay: Induction of flowering and growth height of cotton, hydroponic (Example 18); type: in vivo; details: for Shoot length: 4 weeks; for No. of squares per vessel (3 plants): control 0, average of 3 vessels; for Shoot length rel.: control 100
# Procedure: Cotton plants were subjected to hydroponic treatment under the same conditions as in Example 16. The active ingredients were added (1.25 mg/vessel=0.3 ppm and 5 mg/vessel=1.25 ppm) at a height of the plant of 15 to 18 cm. […] The results below are averages from 3 vessels, each of 3 plants.
# [5] = test system: spring barley; assay: Stem length, lateral shoots and yield in spring barley (Example 12); type: in vivo; details: for Ear weight relative / No. of lateral shoots relative / Stem length relative: control 100
# Procedure: To examine the effect of the various substances on spring barley up to the maturity stage of the plants, an experiment was carried out in large pots. The plants were grown in quartz sand (fertilized with 2 g N as ammonium nitrate in 3 doses, 1 g P2 O5 as secondary sodium phosphate, 1.5 g K2 O as potassium sulfate, 0.5 g MgO as magnesium sulfate, 10 ml of a solution of trace elements, and 10 mg of iron as an iron complex). […] The treated plants were up to 10% shorter than the control, and yields were also slightly up.
# [6] = test system: wheat; assay: Growth height of wheat, greenhouse (Example 7); type: in vivo, wheat (Opal variety); details: for Plant height relative: control 100
# Source text: (§3) In the greenhouse, the four cereals wheat ("Opal" variety), rye ("Petkuser"), barley ("Villa") and oats ("Flamingskrone") were sown in plastic dishes 11.5 cm in diameter in a sandy loam adequately supplied with nutrients. The active ingredients were applied at various rates to the soil and to the leaves. When applied to the soil, the active ingredient were sprayed onto the surface of the soil on the day of sowing; in the case of leaf treatment, the leaves were sprayed in the usual manner at a growth height of the plants of 10 cm. During the 18 day growth period, the treated plants grew much more slowly than the untreated control, a fact later confirmed by measurements of the stem length. Measurements were taken of 100 plants from each series.
# (§4) The prior art agent used for comparison purposes was N-2-chloroethyl-N,N,N-trimethylammonium chloride (CCC; German Printed Application DAS No. 1,294,734).
# [7] = test system: rye; assay: Growth height of rye, greenhouse (Example 8); type: in vivo, rye (Petkuser); details: for Plant height relative: control 100
# Source text: as §3, §4
# [8] = test system: barley; assay: Growth height of barley, greenhouse (Example 9); type: in vivo, barley (Villa); details: for Plant height relative: control 100
# Source text: as §3, §4
# [9] = test system: oats; assay: Growth height of oats, greenhouse (Example 10); type: in vivo, oats (Flamingskrone); details: for Plant height relative: control 100
# Source text: as §3, §4
# [10] = test system: Hordeum vulgare; assay: Growth height of young cereal plants (Example 11, Table A); type: in vivo; details: soil treatment
# Source text: as §1
# [11] = test system: Triticum aestivum; assay: as above; type: in vivo
# Source text: as §1
# [12] = test system: rice; assay: Action on rice (Example 23); type: in vivo; details: leaf; for Plant height: 66 days; for Plant height relative: control 100
# Procedure: At a growth height of 11 to 13 cm the active ingredients were sprayed onto the leaves in the usual manner. The plants were measured after 66 days.
# [13] = test system: sunflowers; assay: Action on sunflowers (Example 24); type: in vivo; details: for Plant height relative: control 100
# Source text: The active ingredients were applied both to the soil and to the leaves.
smiles,measurement,setting,value
"C[N+](C)(C)CCCl [[ClCH2CH2N(CH3⊕)3]Cl⊖, reference compound]",Growth height,[1]; 0.5 kg/ha,16 cm
same,growth height relative,[1]; 0.5 kg/ha,100
same,Growth height,[1]; 2.0 kg/ha,14 cm
same,growth height relative,[1]; 2.0 kg/ha,87
same,Growth height,[2]; 0.5 kg/ha,9 cm
same,growth height relative,[2]; 0.5 kg/ha,82
same,Growth height,[2]; 2.0 kg/ha,9 cm
same,growth height relative,[2]; 2.0 kg/ha,82
same,Growth height,[3]; 0.25 kg/ha,10 cm
same,growth height relative,[3]; 0.25 kg/ha,91
same,Growth height,[3]; 0.5 kg/ha,10 cm
same,growth height relative,[3]; 0.5 kg/ha,91
same,Growth height,[3]; 1.0 kg/ha,9 cm
same,growth height relative,[3]; 1.0 kg/ha,82
Brc1ccc(N2N=NC3C4CC(C5N=NC45)C32)cc1 (stereo not shown) [drawing 392],Shoot length,[4]; 0.3 ppm,41.9 cm
same,No. of squares per vessel (3 plants),[4]; 0.3 ppm,2.6
same,Shoot length rel.,[4]; 0.3 ppm,88.8
same,Shoot length,[4]; 1.25 ppm,30.9 cm
same,No. of squares per vessel (3 plants),[4]; 1.25 ppm,8.3
same,Shoot length rel.,[4]; 1.25 ppm,65.5
Clc1ccc(N2N=NC3C4CC(C5N=NC45)C32)cc1 (stereo not shown) [drawing 377],Ear weight,[5]; 0.5 kg/ha,91.5 g
same,No. of lateral shoots,[5]; 0.5 kg/ha,105
same,Stem length,[5]; 0.5 kg/ha,74.1 cm
same,Ear weight relative,[5]; 0.5 kg/ha,101.2
same,No. of lateral shoots relative,[5]; 0.5 kg/ha,112.9
same,Stem length relative,[5]; 0.5 kg/ha,96.4
same,Ear weight,[5]; 1.5 kg/ha,94.8 g
same,No. of lateral shoots,[5]; 1.5 kg/ha,111
same,Stem length,[5]; 1.5 kg/ha,69.7 cm
same,Ear weight relative,[5]; 1.5 kg/ha,104.9
same,No. of lateral shoots relative,[5]; 1.5 kg/ha,119.4
same,Stem length relative,[5]; 1.5 kg/ha,90.6
"C[N+](C)(C)CCCl.[Cl-] [CCC, N-2-chloroethyl-N,N,N-trimethylammonium chloride, reference compound]",Plant height,"[6]; leaf, 0.125 kg/ha",28.0 cm
same,Plant height relative,"[6]; leaf, 0.125 kg/ha",93.3
same,Plant height,"[6]; leaf, 0.5 kg/ha",26.0 cm
same,Plant height relative,"[6]; leaf, 0.5 kg/ha",86.7
same,Plant height,"[6]; leaf, 1.0 kg/ha",26.0 cm
same,Plant height relative,"[6]; leaf, 1.0 kg/ha",86.7
same,Plant height,"[6]; leaf, 2.0 kg/ha",23.0 cm
same,Plant height relative,"[6]; leaf, 2.0 kg/ha",76.7
same,Plant height,"[6]; leaf, 4.0 kg/ha",23.0 cm
same,Plant height relative,"[6]; leaf, 4.0 kg/ha",76.7
same,Plant height,"[6]; soil, 0.5 kg/ha",26.0 cm
same,Plant height relative,"[6]; soil, 0.5 kg/ha",83.9
same,Plant height,"[6]; soil, 1.0 kg/ha",24.5 cm
same,Plant height relative,"[6]; soil, 1.0 kg/ha",79.0
same,Plant height,"[6]; soil, 2.0 kg/ha",22.5 cm
same,Plant height relative,"[6]; soil, 2.0 kg/ha",72.6
same,Plant height,"[6]; soil, 6.0 kg/ha",22.0 cm
same,Plant height relative,"[6]; soil, 6.0 kg/ha",71.0
same,Plant height,"[7]; leaf, 0.125 kg/ha",29.0 cm
same,Plant height relative,"[7]; leaf, 0.125 kg/ha",98.3
same,Plant height,"[7]; leaf, 0.5 kg/ha",28.0 cm
same,Plant height relative,"[7]; leaf, 0.5 kg/ha",94.9
same,Plant height,"[7]; leaf, 1.0 kg/ha",27.5 cm
same,Plant height relative,"[7]; leaf, 1.0 kg/ha",93.2
same,Plant height,"[7]; leaf, 2.0 kg/ha",27.5 cm
same,Plant height relative,"[7]; leaf, 2.0 kg/ha",93.2
same,Plant height,"[7]; leaf, 4.0 kg/ha",29.0 cm
same,Plant height relative,"[7]; leaf, 4.0 kg/ha",98.3
same,Plant height,"[7]; soil, 0.5 kg/ha",28.0 cm
same,Plant height relative,"[7]; soil, 0.5 kg/ha",96.6
same,Plant height,"[7]; soil, 1.0 kg/ha",27.5 cm
same,Plant height relative,"[7]; soil, 1.0 kg/ha",94.8
same,Plant height,"[7]; soil, 2.0 kg/ha",28.0 cm
same,Plant height relative,"[7]; soil, 2.0 kg/ha",96.6
same,Plant height,"[7]; soil, 6.0 kg/ha",26.5 cm
same,Plant height relative,"[7]; soil, 6.0 kg/ha",91.4
same,Plant height,"[8]; leaf, 0.125 kg/ha",29.0 cm
same,Plant height relative,"[8]; leaf, 0.125 kg/ha",96.7
same,Plant height,"[8]; leaf, 0.5 kg/ha",28.5 cm
same,Plant height relative,"[8]; leaf, 0.5 kg/ha",95.0
same,Plant height,"[8]; leaf, 1.0 kg/ha",26.5 cm
same,Plant height relative,"[8]; leaf, 1.0 kg/ha",88.3
same,Plant height,"[8]; leaf, 2.0 kg/ha",27.0 cm
same,Plant height relative,"[8]; leaf, 2.0 kg/ha",90.0
same,Plant height,"[8]; leaf, 4.0 kg/ha",27.0 cm
same,Plant height relative,"[8]; leaf, 4.0 kg/ha",90.0
same,Plant height,"[8]; soil, 0.5 kg/ha",28.0 cm
same,Plant height relative,"[8]; soil, 0.5 kg/ha",88.9
same,Plant height,"[8]; soil, 1.0 kg/ha",27.0 cm
same,Plant height relative,"[8]; soil, 1.0 kg/ha",85.7
same,Plant height,"[8]; soil, 2.0 kg/ha",26.0 cm
same,Plant height relative,"[8]; soil, 2.0 kg/ha",82.5
same,Plant height,"[8]; soil, 6.0 kg/ha",25.0 cm
same,Plant height relative,"[8]; soil, 6.0 kg/ha",79.4
same,Plant height,"[9]; leaf, 0.125 kg/ha",28.0 cm
same,Plant height relative,"[9]; leaf, 0.125 kg/ha",100
same,Plant height,"[9]; leaf, 0.5 kg/ha",28.5 cm
same,Plant height relative,"[9]; leaf, 0.5 kg/ha",101.8
same,Plant height,"[9]; leaf, 1.0 kg/ha",28.0 cm
same,Plant height relative,"[9]; leaf, 1.0 kg/ha",100
same,Plant height,"[9]; leaf, 2.0 kg/ha",27.0 cm
same,Plant height relative,"[9]; leaf, 2.0 kg/ha",96.4
same,Plant height,"[9]; leaf, 4.0 kg/ha",25.5 cm
same,Plant height relative,"[9]; leaf, 4.0 kg/ha",91.1
same,Plant height,"[9]; soil, 0.5 kg/ha",28.0 cm
same,Plant height relative,"[9]; soil, 0.5 kg/ha",100
same,Plant height,"[9]; soil, 1.0 kg/ha",28.0 cm
same,Plant height relative,"[9]; soil, 1.0 kg/ha",100
same,Plant height,"[9]; soil, 2.0 kg/ha",27.0 cm
same,Plant height relative,"[9]; soil, 2.0 kg/ha",96.4
same,Plant height,"[9]; soil, 6.0 kg/ha",26.0 cm
same,Plant height relative,"[9]; soil, 6.0 kg/ha",92.9
same,Growth height,[10]; 0.5 kg/ha,36 cm
same,Growth height,[10]; 1.0 kg/ha,31 cm
same,Growth height,[10]; 2.0 kg/ha,33 cm
same,Growth height,"[11]; leaf treatment, 0.5 kg/ha",40 cm
same,Growth height,"[11]; leaf treatment, 1.0 kg/ha",40 cm
same,Growth height,"[11]; leaf treatment, 2.0 kg/ha",40 cm
same,Growth height,"[11]; soil treatment, 0.5 kg/ha",40 cm
same,Growth height,"[11]; soil treatment, 1.0 kg/ha",40 cm
same,Growth height,"[11]; soil treatment, 2.0 kg/ha",33 cm
same,Ear weight,[5]; 3 kg/ha,95.0 g
same,No. of lateral shoots,[5]; 3 kg/ha,99
same,Stem length,[5]; 3 kg/ha,74.2 cm
same,Ear weight relative,[5]; 3 kg/ha,105.1
same,No. of lateral shoots relative,[5]; 3 kg/ha,106.5
same,Stem length relative,[5]; 3 kg/ha,96.5
same,Shoot length,[4]; 0.3 ppm,36.2 cm
same,No. of squares per vessel (3 plants),[4]; 0.3 ppm,0
same,Shoot length rel.,[4]; 0.3 ppm,76.7
same,Shoot length,[4]; 1.25 ppm,34.8 cm
same,No. of squares per vessel (3 plants),[4]; 1.25 ppm,0
same,Shoot length rel.,[4]; 1.25 ppm,73.8
same,buds / squares,[4]; 4 week growth period,withered in the nascent stage and dropped off
same,Plant height,[12]; 1.0 kg/ha,38.0 cm
same,Plant height relative,[12]; 1.0 kg/ha,93.6
same,Plant height,[12]; 2.0 kg/ha,40.5 cm
same,Plant height relative,[12]; 2.0 kg/ha,99.8
same,Plant height,[12]; 4.0 kg/ha,38.5 cm
same,Plant height relative,[12]; 4.0 kg/ha,94.8
same,Plant height,[12]; 6.0 kg/ha,40.0 cm
same,Plant height relative,[12]; 6.0 kg/ha,98.5
same,Plant height,"[13]; leaf, 1.5 kg/ha",38.0 cm
same,Plant height relative,"[13]; leaf, 1.5 kg/ha",99
same,Plant height,"[13]; leaf, 6.0 kg/ha",32.5 cm
same,Plant height relative,"[13]; leaf, 6.0 kg/ha",85
same,Plant height,"[13]; soil, 3.0 kg/ha",40.0 cm
same,Plant height relative,"[13]; soil, 3.0 kg/ha",110
same,Plant height,"[13]; soil, 12.0 kg/ha",36.0 cm
same,Plant height relative,"[13]; soil, 12.0 kg/ha",99

# From patent US4257941A, “Polycyclic nitrogen-containing compounds” (BASF Aktiengesellschaft, priority 1976, dated 1981)
